In patent US9068017B2, “Compositions and methods for inhibiting terminal transferase activity” (IBIS BIOSCIENCES, INC., priority 2010, dated 2015):

System: polymerase having terminal transferase activity
Protocol: PCR products with and without boric acid added to PCR components and reagents prior to thermal cycling steps were compared. Stock boric acid was dissolved in 50% primer dilution buffer and added to PCR reactions for a final concentration of 100 mM boric acid and 200 mM boric acid.

- 3′ non-template addition of amplicons resulting from polymerase dependent terminal transferase activity (addition of boric acid to amplification reactions, summary statement, no concentration given): reduced 3′ non-template addition
SMILES: OB(O)O [boric acid]
- non-template addition on forward and reverse strands of PCR products (boric acid added before thermal cycling, final concentration 100 mM and 200 mM, mass spectrometry (FIG. 1), non-template addition identified in absence of boric acid): undetectable non-template addition on both the forward and reverse strands
